Measured values: patent US20100120690A1, “Polypeptides Having Antimicrobial Activity and Polynucleotides Encoding Same” (Novozymes Adenium Biotech A/S, priority 2005, published 2010)

Key:
Format in all cases: cell-based
[1] = test system: Staphylococcus aureus, ATCC 25923; assay: MIC, NCCLS/CLSI guidelines (Example 5), strain B; conditions: relative to wildtype Plectasin; average of two independent experiments
Method: (§1) Plectasin wild-type (SEQ ID NO: 1) and several variants of Plectasin were expressed and purified. The Minimal Inhibitory Concentration (MIC) was determined to test for their antimicrobial activity following the NCCLS guidelines from CLSI (Clinical and Laboratory Standards Institute; formerly known as National Committee for Clinical and Laboratory Standards).
(§2) The peptides were tested against the following strains: • A: Staphylococcus aureus, ATCC 29213; • B: Staphylococcus aureus, ATCC 25923; • C: Staphylococcus aureus, ATCC 29737; • D: Staphylococcus aureus, MRSA ST5 (2001), multi-resistant clinical human isolate from Statens Serum Institut, Denmark; • E: Staphylococcus aureus, MRSA ST80 (2003), multi-resistant clinical human isolate from Statens Serum Institut, Denmark.
(§3) All MIC values represent an average of two independent experiments; and all results in Table 5 are expressed relative to wildtype Plectasin:
(§4) 0: >100% of Plectasin wildtype MIC; 1: 80-100% of Plectasin wildtype MIC; 2: 50-80% of Plectasin wildtype MIC; 3: <50% of Plectasin wildtype MIC.

[2] = test system: Staphylococcus aureus, ATCC 29737; assay: MIC, NCCLS/CLSI guidelines (Example 5), strain C; conditions: relative to wildtype Plectasin; average of two independent experiments
Method: as §1, §2, §3, §4

[3] = test system: Staphylococcus aureus, MRSA ST5 (2001); assay: MIC, NCCLS/CLSI guidelines (Example 5), strain D; conditions: relative to wildtype Plectasin; average of two independent experiments
Method: as §1, §2, §3, §4

[4] = test system: Staphylococcus carnosus ATCC51365; assay: Yeast screening assay: radial diffusion assay of yeast supernatants; set-up: key: An activity of 3 is better than Plectasin; An activity of 2 corresponds to the activity of Plectasin; 1 is worse than Plectasin; conditions: yeast supernatant, clearing zone in radial diffusion assay
Method in brief: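 Supernatants from S. cerevisiae expressing plectasin variants, grown 3 days at 30 °C in galactose medium, were applied to agarose containing 5×10^5 cfu/mL S. carnosus. Plates were incubated 3 h at 37 °C, overlaid, left overnight and MTT-stained. Clearing zones were scored as 2 = plectasin-like, 3 = better, 1 = worse.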

[5] = test system: Staphylococcus aureus, ATCC 29213; assay: MIC, NCCLS/CLSI guidelines (Example 5), strain A; conditions: relative to wildtype Plectasin; average of two independent experiments
Method: as §1, §2, §3, §4

[6] = test system: Staphylococcus aureus, MRSA ST80 (2003); assay: MIC, NCCLS/CLSI guidelines (Example 5), strain E; conditions: relative to wildtype Plectasin; average of two independent experiments
Method: as §1, §2, §3, §4

[7] = test system: panel of 6 different strains of Staphylococcus aureus; assay: Average MIC, NCCLS/CLSI guidelines using caMHB (Example 6); conditions: average over 6 S. aureus strains, duplicate; MIC above 32 counted as 64; read after 18-24 hours at 37° C.
Method in brief: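 MICs were determined by broth dilution per NCCLS/CLSI in caMHB against six S. aureus strains (four MSSA, two MRSA), with peptides at 0.03–32 microgram/mL, read after 18-24 h at 37° C. Each was tested in duplicate and the two results averaged; MICs above 32 micrograms/mL were counted as 64.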

Row | Substance | Relative MIC, strain B [1] | Relative MIC, strain C [2] | Relative MIC, strain D [3] | Activity (antimicrobial activity relative to the activity of plectasin) [4] | Relative MIC, strain A [5] | Relative MIC, strain E [6] | Average MIC [7]
1 | GFGCNGPWDENDMQCHNHCKSIKGYKGGYCAKGGFVCKCY [Mutation D11N] | 3 (<50% of Plectasin wildtype MIC) | 2 (50-80% of Plectasin wildtype MIC) | 2 (50-80% of Plectasin wildtype MIC) | 3 | 2 (50-80% of Plectasin wildtype MIC) | 3 (<50% of Plectasin wildtype MIC) | 6 micrograms/mL
2 | GFGCNGPWDEDDMRCHNHCKSIRGYRGGYCAKGGFVCKCY [Q14R + K23R + K26R] | 3 (<50% of Plectasin wildtype MIC) | 3 (<50% of Plectasin wildtype MIC) | 3 (<50% of Plectasin wildtype MIC) | 2 | 3 (<50% of Plectasin wildtype MIC) | 3 (<50% of Plectasin wildtype MIC) | 2 micrograms/mL
3 | GFGCRGPWDEDDMQCHNHCKSIKGYKGGYCAKGGFVCKCY [Mutation N5R] | 2 (50-80% of Plectasin wildtype MIC) | 2 (50-80% of Plectasin wildtype MIC) | 2 (50-80% of Plectasin wildtype MIC) | 3 | 1 (80-100% of Plectasin wildtype MIC) | 2 (50-80% of Plectasin wildtype MIC) | 8 micrograms/mL
4 | GFGCNGPWGEDDMRCHNHCKSIRGYKGGYCAKGGFVCKCY [D9G + Q14R + K23R] | 3 (<50% of Plectasin wildtype MIC) | 3 (<50% of Plectasin wildtype MIC) | 3 (<50% of Plectasin wildtype MIC) | 3 | 3 (<50% of Plectasin wildtype MIC) | 3 (<50% of Plectasin wildtype MIC) | 2 micrograms/mL
5 | N5S + D9S: variant of Plectasin (SEQ ID NO: 1) (GFGCSGPWSEDDMQCHNHCKSIKGYKGGYCAKGGFVCKCY) | 3 (<50% of Plectasin wildtype MIC) | 3 (<50% of Plectasin wildtype MIC) | 2 (50-80% of Plectasin wildtype MIC) |  | 0 (>100% of Plectasin wildtype MIC) | 3 (<50% of Plectasin wildtype MIC) | 6 micrograms/mL
6 | GFGCNGPWDEDDMRCHNHCKSIKGYRGGYCAKGGFVCRCY [Q14R + K26R + K38R] | 3 (<50% of Plectasin wildtype MIC) | 3 (<50% of Plectasin wildtype MIC) | 3 (<50% of Plectasin wildtype MIC) | 3 | 3 (<50% of Plectasin wildtype MIC) | 3 (<50% of Plectasin wildtype MIC) | 2 micrograms/mL
7 | N5S + D9A + K26R: variant of Plectasin (SEQ ID NO: 1) (GFGCSGPWAEDDMQCHNHCKSIKGYRGGYCAKGGFVCKCY) | 3 (<50% of Plectasin wildtype MIC) | 3 (<50% of Plectasin wildtype MIC) | 3 (<50% of Plectasin wildtype MIC) |  | 3 (<50% of Plectasin wildtype MIC) | 3 (<50% of Plectasin wildtype MIC) | 3 micrograms/mL
8 | N5R + M13Y + N17R: variant of Plectasin (SEQ ID NO: 1) (GFGCRGPWDEDDYQCHRHCKSIKGYKGGYCAKGGFVCKCY) | 3 (<50% of Plectasin wildtype MIC) | 3 (<50% of Plectasin wildtype MIC) | 3 (<50% of Plectasin wildtype MIC) |  | 3 (<50% of Plectasin wildtype MIC) | 3 (<50% of Plectasin wildtype MIC) | 1 micrograms/mL
9 | N5G + Q14K: variant of Plectasin (SEQ ID NO: 1) (GFGCGGPWDEDDMKCHNHCKSIKGYKGGYCAKGGFVCKCY) | 2 (50-80% of Plectasin wildtype MIC) | 3 (<50% of Plectasin wildtype MIC) | 0 (>100% of Plectasin wildtype MIC) |  | 2 (50-80% of Plectasin wildtype MIC) | 2 (50-80% of Plectasin wildtype MIC) | 9 micrograms/mL
10 | M13G + N17R + G33A: variant of Plectasin (SEQ ID NO: 1) (GFGCNGPWDEDDGQCHRHCKSIKGYKGGYCAKAGFVCKCY) | 3 (<50% of Plectasin wildtype MIC) | 3 (<50% of Plectasin wildtype MIC) | 3 (<50% of Plectasin wildtype MIC) |  | 3 (<50% of Plectasin wildtype MIC) | 3 (<50% of Plectasin wildtype MIC) | 2 micrograms/mL
11 | N5G + M13Y + N17K: variant of Plectasin (SEQ ID NO: 1) (GFGCGGPWDEDDYQCHKHCKSIKGYKGGYCAKGGFVCKCY) | 3 (<50% of Plectasin wildtype MIC) | 3 (<50% of Plectasin wildtype MIC) | 3 (<50% of Plectasin wildtype MIC) |  | 3 (<50% of Plectasin wildtype MIC) | 2 (50-80% of Plectasin wildtype MIC) | 5 micrograms/mL
12 | N5A + D9S + M13L + N17T: variant of Plectasin (SEQ ID NO: 1) (GFGCAGPWSEDDLQCHTHCKSIKGYKGGYCAKGGFVCKCY) | 3 (<50% of Plectasin wildtype MIC) | 3 (<50% of Plectasin wildtype MIC) | 2 (50-80% of Plectasin wildtype MIC) |  | 0 (>100% of Plectasin wildtype MIC) | 3 (<50% of Plectasin wildtype MIC) | 6 micrograms/mL
13 | D9N + M13L + Q14R: variant of Plectasin (SEQ ID NO: 1) (GFGCNGPWNEDDLRCHNHCKSIKGYKGGYCAKGGFVCKCY) | 3 (<50% of Plectasin wildtype MIC) | 3 (<50% of Plectasin wildtype MIC) | 3 (<50% of Plectasin wildtype MIC) |  | 3 (<50% of Plectasin wildtype MIC) | 3 (<50% of Plectasin wildtype MIC) | 1 micrograms/mL
